One molecule from patent US4160829A, “Antibacterial 1,2,4-oxadiazolylacetamido cephalosporins” (Gist-Brocades N.V., priority 1972, dated 1979) can be followed below.

Test [1] concerns Staph.aureus A 2001. Put plainly: agar serial dilution test. Type of test: cell-based, Staphylococcus aureus. The settings on record: Staphylococcus aureus, A2001, 24 h, agar serial dilution, 24 hours, 37° C.; read-out: minimal inhibitory concentration (MIC).
The test system of test [2] is Prot.mirab. H 3. Put plainly: agar serial dilution test. Type of test: cell-based, Proteus mirabilis. The settings on record: Proteus mirabilis; agar serial dilution, 24 hours, 37° C.; read-out: minimal inhibitory concentration (MIC).
The test system of test [3] is Pseud.aerug. Wyeth A 1058. The test is described as follows: agar serial dilution test. The test is classed as cell-based. The settings on record: agar serial dilution, 24 hours, 37° C.; read-out: minimal inhibitory concentration (MIC).
For test [4], the system named is Staph.aureus A 2000. The test is described as follows: agar serial dilution test. The test is classed as cell-based, Staphylococcus aureus. The following applies: Staphylococcus aureus, A2000, 24 h, agar serial dilution, 24 hours, 37° C.; read-out: minimal inhibitory concentration (MIC).
Test [5] has as its system Haem.infl. A 1030. The test is described as follows: agar serial dilution test. Type of test: cell-based. The settings on record: 24 hours, 37° C., read-out: minimal inhibitory concentration (MIC).
The test system of test [6] is Shig.equir. T 3. The test is described as follows: agar serial dilution test. The test is classed as cell-based. The following applies: 24 h, 37° C., read-out: minimal inhibitory concentration (MIC).
In test [7] the test system is Strep.haem. A 266. Put plainly: agar serial dilution test. The test is classed as cell-based, Streptococcus haemolyticus. The following applies: Streptococcus; agar serial dilution, 24 hours, 37° C.; read-out: minimal inhibitory concentration (MIC).
Test [8] deals with Pseud.aerug. H 10. Put plainly: agar serial dilution test. The test is classed as cell-based. The following applies: agar serial dilution, 24 hours, 37° C.; read-out: minimal inhibitory concentration (MIC).
The subject of test [9] is Kleb.pneum. A 809. The test is described as follows: agar serial dilution test. Type of test: cell-based, Klebsiella pneumoniae. The following applies: Klebsiella pneumoniae; agar serial dilution, 24 hours, 37° C.; read-out: minimal inhibitory concentration (MIC).
In test [10] the test system is Prot.morg. 2241. The test is described as follows: agar serial dilution test. Type of test: cell-based. The settings on record: 24 h, agar serial dilution, 24 hours, 37° C.; read-out: minimal inhibitory concentration (MIC).
For test [11], the system named is Prot.mirab. L 93. Put plainly: agar serial dilution test. The settings on record: Proteus mirabilis; agar serial dilution, 24 hours, 37° C.; read-out: minimal inhibitory concentration (MIC). The test is classed as cell-based, Proteus mirabilis.
The subject of test [12] is Bac.Subt.ATCC 6633. The test is described as follows: agar serial dilution test. The test is classed as cell-based, Bacillus subtilis. The following applies: Bacillus subtilis, ATCC6633, 24 h, agar serial dilution, 24 hours, 37° C.; read-out: minimal inhibitory concentration (MIC).
Test [13] has as its system Haem.infl. A 1030. Put plainly: micro serial dilution test. The test is classed as cell-based. The following applies: 18 h, micro serial dilution (in brackets), about 18 hours, 30° C. or 37° C.; read-out: minimal inhibitory concentration (MIC).
Test [14] concerns Esch.coli U 20. Put plainly: agar serial dilution test. Type of test: cell-based, Escherichia coli. The following applies: Escherichia coli, U20; agar serial dilution, 24 hours, 37° C.; read-out: minimal inhibitory concentration (MIC).
Test [15] has as its system Salm.dubl. P 43. Put plainly: agar serial dilution test. Type of test: cell-based, Salmonella dublin. The settings on record: Salmonella enterica; agar serial dilution, 24 hours, 37° C.; read-out: minimal inhibitory concentration (MIC).
Test [16] deals with Prot.rettg. A 821. The test is described as follows: agar serial dilution test. The following applies: Providencia rettgeri, 24 h, agar serial dilution, 24 hours, 37° C.; read-out: minimal inhibitory concentration (MIC). Type of test: cell-based, Proteus rettgeri.
Test [17] relates to Dipl.pneum. L 54. The test is described as follows: agar serial dilution test. Type of test: cell-based, Diplococcus pneumoniae. The settings on record: Streptococcus pneumoniae; agar serial dilution, 24 hours, 37° C.; read-out: minimal inhibitory concentration (MIC).
Test [18] relates to Strep. faec. L 80. The test is described as follows: agar serial dilution test. Type of test: cell-based, Streptococcus faecalis. The settings on record: Enterococcus faecalis; agar serial dilution, 24 hours, 37° C.; read-out: minimal inhibitory concentration (MIC).
In test [19] the test system is Pseud.aerug. 2396. The test is described as follows: agar serial dilution test. Type of test: cell-based. The settings on record: agar serial dilution, 24 hours, 37° C.; read-out: minimal inhibitory concentration (MIC).
Test [20] has as its system Staph.aureus A 355. Put plainly: agar serial dilution test. The following applies: Staphylococcus aureus, A355, 24 h, read-out: minimal inhibitory concentration (MIC), agar serial dilution, 24 hours, 37° C.; penicillinase-producing strain.
The test system of test [21] is Staph.aureus A 321. Put plainly: agar serial dilution test. Type of test: cell-based, Staphylococcus aureus. The settings on record: Staphylococcus aureus, A321, 24 h, agar serial dilution, 24 hours, 37° C.; read-out: minimal inhibitory concentration (MIC).
The test system of test [22] is Past.multo. A 723. The test is described as follows: agar serial dilution test. The test is classed as cell-based, Pasteurella multocida. The following applies: Pasteurella multocida; agar serial dilution, 24 hours, 37° C.; read-out: minimal inhibitory concentration (MIC).
For test [23], the system named is Bruc.melit. A 488. Put plainly: microbe, parasite or virus in culture. The settings on record: Brucella melitensis, 24 h, read-out: minimal inhibitory concentration (MIC). The test is classed as cell-based.

Values after ≈ are worked out from the molar mass of the structure shown.

Take `CC1(C)S[C@@H]2[C@H](NC(=O)[C@H](N)c3ccccc3)C(=O)N2[C@H]1C(=O)O` [Ampicillin, reference compound]: the MIC is 1 µg/mL (≈ 2.86 µM) in test [1]; 0.9 µg/mL (≈ 2.58 µM) in test [2]; over 100 µg/mL in test [3]; 1.5 µg/mL (≈ 4.29 µM) in test [4]; under 125 µg/mL in test [5]; 1 µg/mL (≈ 2.86 µM) in test [6]. Also, the MIC is under 0.015 µg/mL in test [7]; 125 µg/mL (≈ 358 µM) in [8]; 25 µg/mL (≈ 71.5 µM) in test [9]; 12.5 µg/mL (≈ 35.8 µM) in test [10]; 0.15 µg/mL (≈ 0.429 µM) in [11]; 0.03 µg/mL (≈ 0.0859 µM) in test [12]. Moreover, the MIC was determined as 0.5 µg/mL (≈ 1.43 µM) in [13]; 3 µg/mL (≈ 8.59 µM) in test [14]; 1.5 µg/mL (≈ 4.29 µM) in test [15]; 3 µg/mL (≈ 8.59 µM) in test [16]; 0.06 µg/mL (≈ 0.172 µM) in [17]; 1 µg/mL (≈ 2.86 µM) in [18]. Besides, the MIC was determined as 12.5 µg/mL (≈ 35.8 µM) in test [19]; 6 µg/mL (≈ 17.2 µM) in test [20]; 0.12 µg/mL (≈ 0.343 µM) in [21]; 0.25 µg/mL (≈ 0.715 µM) in [22]; 1 µg/mL (≈ 2.86 µM) in [23].
